Laboratory results as given in publication PMC12290960, “Eremanthus erythropappus as a Source of Antiparasitic Agents: In Vitro and In Vivo Efficacy against Schistosoma mansoni” (ACS Omega, 2025).

Columns and labels:
S. mansoni adult worms = test: In vitro antischistosomal assay on adult worms (mortality/viability by motility); type: cell-based, Schistosoma mansoni; details: for EC50: Schistosoma mansoni, mortality of S. mansoni adult worms, 95% CI in square brackets; for in vitro antischistosomal activity (in words): concentrations of up to 50 μM
in vitro = details: African green monkey
[1] = test system: S. mansoni (49 day old adult infection); test: In vivo antischistosomal assay in S. mansoni-infected mice (worm burden, oogram, fecal egg count); design: species or system Schistosoma mansoni; details: for worm burden reduction (WBR): single dose 400 mg/kg p.o., treated 49 days postinfection, vs vehicle control
Protocol: The Belo Horizonte strain of Schistosoma mansoni was maintained in its life cycle using Biomphalaria glabrata snails (intermediate hosts) and female Swiss mice (final hosts). Three week old female Swiss mice (∼20 g) were obtained from […] para Laboratório (São Paulo, Brazil). Infected snails and mice were housed under controlled conditions (25 °C, 50% humidity, and 12 h light/dark cycles) with ad libitum access to food and water. Mice were percutaneously infected with 80 S. mansoni cercariae and treated 49 days postinfection (adult worm stage). […] At 63 days postinfection, mice were euthanized (CO2), and worms were recovered by mesenteric perfusion. Worm burden reduction was calculated after sexing, , and fecal egg counts were performed as previously described. , The study complied with ARRIVE guidelines, including randomization to minimize bias.

Vero cells = test: Cytotoxicity in mammalian cells (MTT assay); details: CC50 on Vero cells divided by EC50 on schistosomes

## COc1ccc(-c2cc(=O)c3c(O)cc(O)cc3o2)cc1 [acacetin (14), 5,7-dihydroxy-4′-methoxyflavone]
S. mansoni adult worms
  EC50: > 50 µM
  in vitro antischistosomal activity (in words): inactive

## C=C(C)[C@@H]1CC[C@]2(C(=O)O)CC[C@]3(C)[C@H](CC[C@@H]4[C@@]5(C)CC[C@H](O)C(C)(C)[C@@H]5CC[C@]43C)[C@@H]12 [betulinic acid (8), 3β-hydroxy-20(29)-lupaene-28-oic acid]
In vitro
  CC50: > 500 µM
S. mansoni adult worms
  EC50: 36.8 µM
[1]
  worm burden reduction (WBR): 41.9%

## C[C@H]1C(=O)CC[C@@H]2[C@]1(C)CC[C@H]1[C@@]2(C)CC[C@@]2(C)[C@@H]3CC(C)(C)CC[C@]3(C)CC[C@]12C [friedelin (7), friedelan-3-one]
S. mansoni adult worms
  EC50: > 50 µM
  in vitro antischistosomal activity (in words): inactive

## O=C(C1CCCCC1)N1CC(=O)N2CCc3ccccc3C2C1 (stereo not shown) [praziquantel]
In vitro
  CC50 at 72 h: > 500 µM
S. mansoni adult worms
  EC50: 0.8 µM
[1]; 400 mg/kg p.o., 49 day old adult infection
  reduction in immature egg deposition (oogram, EBR immature): 96.8%
[1]; 400 mg/kg p.o., 49 day old adult infection, vs control
  reduction in number of eggs per gram of feces (egg load, EBR): 93.9%
[1]
  worm burden reduction (WBR): 92.6%
Vero cells
  SI (selectivity index): >625
